Test results as given in patent publication US8580794B2 (AbbVie Inc., priority 2009, dated 2013).

Biological target: GST-Bc1-2 (Homo sapiens, UniProt P10415)
Experiment: Time Resolved-Fluorescence Resonance Energy Transfer (TR-FRET) Bcl-2 binding assay with F-Bak peptide probe
Conditions: GST-Bcl-2 1 nM, F-Bak probe 100 nM, Tb-anti-GST 1 nM; '<' = below limit of detection; read-out: TR-FRET Bcl-2 Binding Ki

Sequence of GST-Bc1-2 (P10415 whole entry): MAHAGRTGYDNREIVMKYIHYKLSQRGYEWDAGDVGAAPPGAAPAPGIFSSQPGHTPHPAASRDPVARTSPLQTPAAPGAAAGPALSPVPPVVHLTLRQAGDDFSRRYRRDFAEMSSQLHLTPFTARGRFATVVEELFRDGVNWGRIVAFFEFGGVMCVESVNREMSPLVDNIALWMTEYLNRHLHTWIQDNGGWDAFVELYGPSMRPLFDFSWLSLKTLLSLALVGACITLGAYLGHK

| SMILES | Ki [nM] |
| --- | --- |
| CO[C@H]1CC[C@@H](CNc2ccc(S(=O)(=O)NC(=O)c3ccc(N4CCN(CC5=C(c6ccc(Cl)cc6)CC(C)(C)CC5)CC4)cc3Oc3cnc4[nH]ccc4c3)cc2[N+](=O)[O-])CC1 [Example 29, Cis-4-(4-{[2-(4-chlorophenyl)-4,4-dimethylcyclohex-1-en-1-yl]methyl}piperazin-1-yl)-N-[(4-{[(4-methoxycyclohexyl)methyl]amino}-3-nitrophenyl)sulfonyl]-2-(1H-pyrrolo[2,3-b]pyridin-5-yloxy)benzamide] | < 0.01 |
| CC1(C)CCC(CN2CCN(c3ccc(C(=O)NS(=O)(=O)c4ccc(NCC5CCOCC5)c([N+](=O)[O-])c4)c(Oc4ccc5[nH]ccc5c4)c3)CC2)=C(c2ccc(Cl)cc2)C1 [Example 18, 4-(4-{[2-(4-chlorophenyl)-4,4-dimethylcyclohex-1-en-1-yl]methyl}piperazin-1-yl)-2-(1H-indol-5-yloxy)-N-({3-nitro-4-[(tetrahydro-2H-pyran-4-ylmethyl)amino]phenyl}sulfonyl)benzamide] | 0.017 |
| O=C(NS(=O)(=O)c1cnc(OCC2(F)CCN(C3COC3)CC2)c(Cl)c1)c1ccc(N2CCN(CC3=C(c4ccc(Cl)cc4)CC4(CC3)CC4)CC2)cc1Oc1cnc2[nH]ccc2c1 [Example 345, N-[(5-chloro-6-{[4-fluoro-1-(oxetan-3-yl)piperidin-4-yl]methoxy}pyridin-3-yl)sulfonyl]-4-(4-{[5-(4-chlorophenyl)spiro[2.5]oct-5-en-6-yl]methyl}piperazin-1-yl)-2-(1H-pyrrolo[2,3-b]pyridin-5-yloxy)benzamide] | < 0.01 |
| CC1(C)CCC(CN2CCN(c3ccc(C(=O)NS(=O)(=O)c4ccc(N[C@@H]5CCN(C6CCOC(C)(C)C6)C5)c([N+](=O)[O-])c4)c(Oc4cnc5[nH]ccc5c4)c3)CC2)=C(c2ccc(Cl)cc2)C1 (stereo partly drawn) [Example 131, 4-(4-{[2-(4-chlorophenyl)-4,4-dimethylcyclohex-1-en-1-yl]methyl}piperazin-1-yl)-N-[(4-{[(3R)-1-(2,2-dimethyltetrahydro-2H-pyran-4-yl)pyrrolidin-3-yl]amino}-3-nitrophenyl)sulfonyl]-2-(1H-pyrrolo[2,3-b]pyridin-5-yloxy)benzamide] | < 0.01 |
| CO[C@H]1CC[C@H](CNc2ccc(S(=O)(=O)NC(=O)c3ccc(N4CCN(CC5=C(c6ccc(Cl)cc6)CC(C)(C)CC5)CC4)cc3Oc3cnc4[nH]ccc4c3)cc2[N+](=O)[O-])CC1 [Example 34, Trans-4-(4-{[2-(4-chlorophenyl)-4,4-dimethylcyclohex-1-en-1-yl]methyl}piperazin-1-yl)-N-[(4-{[(4-methoxycyclohexyl)methyl]amino}-3-nitrophenyl)sulfonyl]-2-(1H-pyrrolo[2,3-b]pyridin-5-yloxy)benzamide] | 0.01 |
| CC1(C)CCC(CN2CCN(c3ccc(C(=O)NS(=O)(=O)c4ccc(NCCCN5CCOCC5)c([N+](=O)[O-])c4)c(Oc4cnc5[nH]ccc5c4)c3)CC2)=C(c2ccc(Cl)cc2)C1 [Example 55, 4-(4-{[2-(4-chlorophenyl)-4,4-dimethylcyclohex-1-en-1-yl]methyl}piperazin-1-yl)-N-({4-[(3-morpholin-4-ylpropyl)amino]-3-nitrophenyl}sulfonyl)-2-(1H-pyrrolo[2,3-b]pyridin-5-yloxy)benzamide] | < 0.01 |
| CC1(C)CCC(CN2CCN(c3ccc(C(=O)NS(=O)(=O)c4ccc(NCC5CN(CC(F)F)CCO5)c([N+](=O)[O-])c4)c(Oc4cnc5[nH]ccc5c4)c3)CC2)=C(c2ccc(Cl)cc2)C1 (stereo not drawn) [Example 166, 4-(4-{[2-(4-chlorophenyl)-4,4-dimethylcyclohex-1-en-1-yl]methyl}piperazin-1-yl)-N-{[4-({[4-(2,2-difluoroethyl)morpholin-2-yl]methyl}amino)-3-nitrophenyl]sulfonyl}-2-(1H-pyrrolo[2,3-b]pyridin-5-yloxy)benzamide] | < 0.01 |
| CC1(C)CCC(CC2CCN(c3ccc(C(=O)NS(=O)(=O)c4ccc(OCC5CCOCC5)c(Cl)c4)c(Oc4cnc5[nH]ccc5c4)c3)CC2)=C(c2ccc(Cl)cc2)C1 [Example 316, 4-(4-{[2-(4-chlorophenyl)-4,4-dimethylcyclohex-1-en-1-yl]methyl}piperidin-1-yl)-N-{[3-chloro-4-(tetrahydro-2H-pyran-4-ylmethoxy)phenyl]sulfonyl}-2-(1H-pyrrolo[2,3-b]pyridin-5-yloxy)benzamide] | 0.601 |
| CC1(C)CCC(CN2CCN(c3ccc(C(=O)NS(=O)(=O)c4ccc(N[C@@H]5CC[C@H](N6CCOCC6)C5)c([N+](=O)[O-])c4)c(Oc4cnc5[nH]ccc5c4)c3)CC2)=C(c2ccc(Cl)cc2)C1 [Example 112, 4-(4-{[2-(4-chlorophenyl)-4,4-dimethylcyclohex-1-en-1-yl]methyl}piperazin-1-yl)-N-[(4-{[(1R,3S)-3-morpholin-4-ylcyclopentyl]amino}-3-nitrophenyl)sulfonyl]-2-(1H-pyrrolo[2,3-b]pyridin-5-yloxy)benzamide] | < 0.01 |
| CC1(C)CCC(CN2CCN(c3ccc(C(=O)NS(=O)(=O)c4ccc(NCC5CN(C6COC6)CCO5)c([N+](=O)[O-])c4)c(Oc4cnc5[nH]ccc5c4)c3)CC2)=C(c2ccc(Cl)cc2)C1 (stereo not drawn) [Example 217, 4-(4-{[2-(4-chlorophenyl)-4,4-dimethylcyclohex-1-en-1-yl]methyl}piperazin-1-yl)-N-{[3-nitro-4-({[4-(oxetan-3-yl)morpholin-2-yl]methyl}amino)phenyl]sulfonyl}-2-(1H-pyrrolo[2,3-b]pyridin-5-yloxy)benzamide] | < 0.01 |
| CC1(C)CCC(CN2CCN(c3ccc(C(=O)NS(=O)(=O)c4ccc(NC5CN(C6CCOCC6)C5)c([N+](=O)[O-])c4)c(Oc4cnc5[nH]ccc5c4)c3)CC2)=C(c2ccc(Cl)cc2)C1 [Example 116, 4-(4-{[2-(4-chlorophenyl)-4,4-dimethylcyclohex-1-en-1-yl]methyl}piperazin-1-yl)-N-({3-nitro-4-[(1-tetrahydro-2H-pyran-4-ylazetidin-3-yl)amino]phenyl}sulfonyl)-2-(1H-pyrrolo[2,3-b]pyridin-5-yloxy)benzamide] | < 0.01 |
| O=C(NS(=O)(=O)c1ccc(NCC2CCOCC2)c([N+](=O)[O-])c1)c1ccc(N2CCN(CC3=C(c4ccc(Cl)cc4)CCC4(CCCC4)C3)CC2)cc1Oc1cnc2[nH]ccc2c1 [Example 79, 4-(4-{[8-(4-chlorophenyl)spiro[4.5]dec-7-en-7-yl]methyl}piperazin-1-yl)-N-({3-nitro-4-[(tetrahydro-2H-pyran-4-ylmethyl)amino]phenyl}sulfonyl)-2-(1H-pyrrolo[2,3-b]pyridin-5-yloxy)benzamide] | < 0.01 |
| O=C(NS(=O)(=O)c1ccc(OCC2(F)CCOCC2)c([N+](=O)[O-])c1)c1ccc(N2CCN(CC3=C(c4ccc(Cl)cc4)CCC4(CCCC4)C3)CC2)cc1Oc1cnc2[nH]ccc2c1 [Example 73, 4-(4-{[8-(4-chlorophenyl)spiro[4.5]dec-7-en-7-yl]methyl}piperazin-1-yl)-N-({4-[(4-fluorotetrahydro-2H-pyran-4-yl)methoxy]-3-nitrophenyl}sulfonyl)-2-(1H-pyrrolo[2,3-b]pyridin-5-yloxy)benzamide] | < 0.01 |
| CC1(C)CCC(CN2CCN(c3ccc(C(=O)NS(=O)(=O)c4ccc(OC[C@@H]5COCCO5)c([N+](=O)[O-])c4)c(Oc4cnc5[nH]ccc5c4)c3)CC2)=C(c2ccc(Cl)cc2)C1 [Example 28, 4-(4-{[2-(4-chlorophenyl)-4,4-dimethylcyclohex-1-en-1-yl]methyl}piperazin-1-yl)-N-({4-[(2S)-1,4-dioxan-2-ylmethoxy]-3-nitrophenyl}sulfonyl)-2-(1H-pyrrolo[2,3-b]pyridin-5-yloxy)benzamide] | < 0.01 |
| CC1(C)CCC(CN2CCN(c3ccc(C(=O)NS(=O)(=O)c4ccc(NC[C@H]5CN(C6COC6)CCO5)c([N+](=O)[O-])c4)c(Oc4cnc5[nH]ccc5c4)c3)CC2)=C(c2ccc(Cl)cc2)C1 [Example 361, 4-(4-{[2-(4-chlorophenyl)-4,4-dimethylcyclohex-1-en-1-yl]methyl}piperazin-1-yl)-N-{[3-nitro-4-({[(2S)-4-(oxetan-3-yl)morpholin-2-yl]methyl}amino)phenyl]sulfonyl}-2-(1H-pyrrolo[2,3-b]pyridin-5-yloxy)benzamide] | < 0.01 |
| COCCOCCS(=O)(=O)c1ccc(S(=O)(=O)NC(=O)c2ccc(N3CCN(CC4=C(c5ccc(Cl)cc5)CC(C)(C)CC4)CC3)cc2Oc2cnc3[nH]ccc3c2)cc1[N+](=O)[O-] [Example 59, 4-(4-{[2-(4-chlorophenyl)-4,4-dimethylcyclohex-1-en-1-yl]methyl}piperazin-1-yl)-N-[(4-{[2-(2-methoxyethoxy)ethyl]sulfonyl}-3-nitrophenyl)sulfonyl]-2-(1H-pyrrolo[2,3-b]pyridin-5-yloxy)benzamide] | 0.203 |
| CC1(C)CCC(CN2CCN(c3ccc(C(=O)NS(=O)(=O)c4cnc(O[C@H]5CC[C@H](N6CCOCC6)CC5)c(Br)c4)c(Oc4cnc5[nH]ccc5c4)c3)CC2)=C(c2ccc(Cl)cc2)C1 [Example 124, Trans-N-({5-bromo-6-[(4-morpholin-4-ylcyclohexyl)oxy]pyridin-3-yl}sulfonyl)-4-(4-{[2-(4-chlorophenyl)-4,4-dimethylcyclohex-1-en-1-yl]methyl}piperazin-1-yl)-2-(1H-pyrrolo[2,3-b]pyridin-5-yloxy)benzamide] | < 0.01 |
| CC1(C)CCC(CN2CCN(c3ccc(C(=O)NS(=O)(=O)c4ccc(NCC5CN(CCF)CCO5)c([N+](=O)[O-])c4)c(Oc4cnc5[nH]ccc5c4)c3)CC2)=C(c2ccc(Cl)cc2)C1 (stereo not drawn) [Example 165, 4-(4-{[2-(4-chlorophenyl)-4,4-dimethylcyclohex-1-en-1-yl]methyl}piperazin-1-yl)-N-{[4-({[4-(2-fluoroethyl)morpholin-2-yl]methyl}amino)-3-nitrophenyl]sulfonyl}-2-(1H-pyrrolo[2,3-b]pyridin-5-yloxy)benzamide] | < 0.01 |

Same assay, conditions: TR-FRET Bcl-2 Binding Ki

| SMILES | Ki [nM] |
| --- | --- |
| CN1CCN(Nc2ccc(S(=O)(=O)NC(=O)c3ccc(N4CCN(CC5=C(c6ccc(Cl)cc6)CC(C)(C)CC5)CC4)cc3Oc3ccc4[nH]ccc4c3)cc2[N+](=O)[O-])CC1 [Example 91, 4-(4-{[2-(4-chlorophenyl)-4,4-dimethylcyclohex-1-en-1-yl]methyl}piperazin-1-yl)-2-(1H-indol-5-yloxy)-N-({4-[(4-methylpiperazin-1-yl)amino]-3-nitrophenyl}sulfonyl)benzamide] | 0.487 |

Same assay, conditions: Table 5, direct comparison Z=N vs Z=C analogs; read-out: Bcl-2 FRET ki

| SMILES | Ki [nM] |
| --- | --- |
| CC1(C)CCC(CN2CCN(c3ccc(C(=O)NS(=O)(=O)c4ccc(NCC5CCOCC5)c([N+](=O)[O-])c4)c(Oc4ccc5[nH]ccc5c4)c3)CC2)=C(c2ccc(Cl)cc2)C1 [Example 18, 4-(4-{[2-(4-chlorophenyl)-4,4-dimethylcyclohex-1-en-1-yl]methyl}piperazin-1-yl)-2-(1H-indol-5-yloxy)-N-({3-nitro-4-[(tetrahydro-2H-pyran-4-ylmethyl)amino]phenyl}sulfonyl)benzamide] | 0.017 |

Same assay, conditions: read-out: Bcl-2 FRET ki

| SMILES | Ki [nM] |
| --- | --- |
| CN1CCN(Nc2ccc(S(=O)(=O)NC(=O)c3ccc(N4CCN(CC5=C(c6ccc(Cl)cc6)CC(C)(C)CC5)CC4)cc3Oc3ccc4[nH]ccc4c3)cc2[N+](=O)[O-])CC1 [Example 91, 4-(4-{[2-(4-chlorophenyl)-4,4-dimethylcyclohex-1-en-1-yl]methyl}piperazin-1-yl)-2-(1H-indol-5-yloxy)-N-({4-[(4-methylpiperazin-1-yl)amino]-3-nitrophenyl}sulfonyl)benzamide] | 0.487 |
